Experimental data reported in ChEMBL document CHEMBL2412998, “Search for a novel SIRT1 activator: structural modification of SRT1720 and biological evaluation” (Bioorg Med Chem Lett, 2013).
Active and inactive are the calls of the source. No cut-off for these calls is given here.

Key:
[1] = target: T1, NAD-dependent protein deacetylase sirtuin-1 (Homo sapiens) (UniProt Q96EB6); assay: Activation of human recombinant SIRT1 at 10 uM preincubated for 60 mins prior to substrate addition measured after 60 mins by fluorescence assay
T1 sequence (whole entry): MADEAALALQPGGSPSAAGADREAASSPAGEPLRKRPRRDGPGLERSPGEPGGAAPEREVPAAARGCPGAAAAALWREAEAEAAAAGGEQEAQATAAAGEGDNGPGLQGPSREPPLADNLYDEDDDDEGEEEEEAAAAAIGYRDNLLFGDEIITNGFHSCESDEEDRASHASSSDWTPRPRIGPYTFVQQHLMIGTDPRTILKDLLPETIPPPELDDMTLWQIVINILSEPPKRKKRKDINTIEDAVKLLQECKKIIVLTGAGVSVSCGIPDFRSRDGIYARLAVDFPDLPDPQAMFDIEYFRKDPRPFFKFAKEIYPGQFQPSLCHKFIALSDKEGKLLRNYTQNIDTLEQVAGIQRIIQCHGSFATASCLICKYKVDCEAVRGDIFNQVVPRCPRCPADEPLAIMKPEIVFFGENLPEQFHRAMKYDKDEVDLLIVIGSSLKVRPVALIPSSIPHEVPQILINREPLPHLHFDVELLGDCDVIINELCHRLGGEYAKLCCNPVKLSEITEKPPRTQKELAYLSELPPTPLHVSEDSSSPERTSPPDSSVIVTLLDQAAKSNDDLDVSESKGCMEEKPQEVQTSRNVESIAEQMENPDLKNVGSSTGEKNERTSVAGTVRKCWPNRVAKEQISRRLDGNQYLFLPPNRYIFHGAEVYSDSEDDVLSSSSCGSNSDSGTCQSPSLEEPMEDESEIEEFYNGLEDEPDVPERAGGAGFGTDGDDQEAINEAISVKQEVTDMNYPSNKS

[2] = target: T1, NAD-dependent protein deacetylase sirtuin-1 (Homo sapiens); assay: Activation of human recombinant SIRT1 at 100 uM preincubated for 60 mins prior to substrate addition measured after 60 mins by fluorescence assay

Row | SMILES | Activity [1] | Activity [2]
1 | COCCOCOCc1csc2nc(-c3ccccc3NC(=O)c3cnc4ccccc4n3)cn12 | inactive | 
2 | O=C(Nc1cccc(-c2cn3c(CN4CCNCC4)csc3n2)c1)c1cc2ccccc2[nH]1 | inactive | 
3 | O=C(Nc1cccc(-c2cn3c(CN4CCNCC4)csc3n2)c1)c1cnc2ccccc2c1 | 140% | Active
4 | O=C(Nc1cccc(-c2cn3c(CN4CCCC4)csc3n2)c1)c1cnc2ccccc2n1 | inactive | 
5 | O=C(Nc1cccc(-c2cn3c(CN4CCNCC4)csc3n2)c1)c1ccc2ccccc2n1 | 140% | Active
6 | COCc1csc2nc(-c3ccccc3NC(=O)c3cnc4ccccc4n3)cn12 | inactive | 
7 | O=C(Nc1cccc(-c2cn3c(CN4CCOCC4)csc3n2)c1)c1cnc2ccccc2n1 | inactive | 
8 | O=C(Nc1cccc(-c2cn3c(CN4CCCCC4)csc3n2)c1)c1cnc2ccccc2n1 | inactive | 
9 | CNCc1csc2nc(-c3ccccc3NC(=O)c3cnc4ccccc4n3)cn12 | inactive | 
10 | O=C(Nc1cccc(-c2cn3c(CN4CCNCC4)csc3n2)c1)c1cnc2ccccc2n1 | Active | Active
11 | O=C(Nc1cccc(-c2cn3c(CN4CCNCC4)csc3n2)c1)c1cnccn1 | inactive | 

Next, values leading:

Row | Activity [1] | Activity [2] | SMILES
12 | inactive |  | O=C(Nc1ccccc1-c1cn2c(CN3CCNCC3)csc2n1)c1cccc2ccccc12
13 | inactive |  | O=C(Nc1ccccc1-c1cn2c(CN3CCNCC3)csc2n1)c1ccnc2ccccc12
14 | inactive |  | O=C(Nc1cccc(-c2cn3c(CN4CCNCC4)csc3n2)c1)c1ccnc2ccccc12
15 | inactive |  | O=C(Nc1ccccc1-c1cn2c(CN3CCNCC3)csc2n1)c1ccc2ccccc2c1
16 | inactive |  | O=C(Nc1ccc(-c2cn3c(CN4CCNCC4)csc3n2)cc1)c1cnc2ccccc2n1
17 | 160% | Active | O=C(Nc1ccccc1-c1cn2c(CN3CCNCC3)csc2n1)c1cnc2ccccc2n1
